Measurements published in US11596716B2, “Compounds and matrices for use in bone growth and repair” (Human BioMolecular Research Institute, priority 2013, dated 2023).

Tested on: C2C12 cells
Assay: Alkaline Phosphatase (ALP) functional activity assay in C2C12 cells
Type: cell-based, Mouse
Settings: normalized to DMSO treatment; for activation at 0.5 µM: Mus musculus, C2C12, 144 h
Method: Alkaline Phosphatase (ALP) Functional Activity Assay: C2C12 cells were plated into 12-well plates with 7,000 cells/well in 1 mL growth media. […] 1, 2, 3, or 4 in 0.1% DMSO was added (500 nM). Half the media was exchanged with fresh media containing compound every 48 hrs. After 6 days, media was removed, ALP Lysis Buffer (10 mM Tris-HCl pH 8.0, 1 mM MgCl2, and 1% Triton X100) added, and cell lysate obtained (10 min incubation at RT) by centrifugation (5 min at 3500× g at 4° C.). Para-nitrophenol phosphate (pNPP) (2 mg/mL) was incubated with 50 μl cell lysate (10 mins, 37° C.). After addition of […] 0.02 N NaOH, absorbance OD405 was measured. Protein concentration was determined by Bradford protein assay. Results of ALP activity were plotted as nM pNP hydrolyzed/mg total protein. After normalizing control samples (i.e., DMSO-treated samples) to one-fold, the fold-changes were plotted to indicate the relative ALP activity. […] This protocol was applied to hMSC and E15 cells as well.

[1] = compounds of Formula VI, absence of matrix
[2] = compounds of Formula VI, presence of calcium phosphate matrix
[3] = compounds of Formula II or IV, absence of matrix
[4] = compounds of Formula II or IV, presence of calcium phosphate matrix

Molecule: O=C(C=CC1CCCCC1)C1CCCC(=CC2CCCCC2)C1=O (stereo not shown) [Compound 64, 2-(3-Cyclohexylacryloyl)-6-(cyclohexylmethylene)cyclohexanone]
- activation at 0.5 µM [1]: 5 to 50%
- activation at 0.5 µM [2]: 5 to 50%

Molecule: O=C(C=C(O)CCc1ccc(O)cc1)CCc1ccc(O)cc1 [Compound 63, 5-Hydroxy-1,7-bis(4-hydroxyphenyl)hept-4-en-3-one]
- activation at 0.5 µM [1]: 5 to 50%
- activation at 0.5 µM [2]: 50 to 100%

Molecule: CC(=O)N1c2ccc(F)cc2[C@H](Nc2ccc(F)cc2)C[C@@H]1C (relative stereo) [Compound 21, cis-1-acetyl-2-methyl-6-fluoro-N-(p-fluorophenyl)-1,2,3,4-tetrahydroquinolin-4-amine]
- activation at 0.5 µM [3]: 5 to 50%
- activation at 0.5 µM [4]: 5 to 50%

Molecule: COc1cc(C=CC(=O)C2CCCC(=Cc3ccc(OC(=O)C(N)CCCCN)c(OC)c3)C2=O)ccc1OC(=O)C(N)CCCCN (stereo not shown) [Compound 80, 4-(3-(3-(4-(2,6-diaminohexanoyloxy)-3-methoxybenzylidene)-2-oxocyclohexyl)-3-oxoprop-1-enyl)-2-methoxyphenyl bis(2,6-diaminohexanoate)]
- ALP activity −matrix [1]: − (<5%)
- ALP activity +matrix [2]: + (5-50%)

Molecule: COc1ccc(C(=O)N2c3ccc(F)cc3[C@H](Nc3ccc(F)cc3)C[C@@H]2C)cc1 (relative stereo) [Compound 25, cis-1-(p-methoxybenzoyl)-2-methyl-6-fluoro-N-(p-fluorophenyl)-1,2,3,4-tetrahydroquinolin-4-amine]
- activation at 0.5 µM [3]: 5 to 50%
- activation at 0.5 µM [4]: 5 to 50%

Molecule: COc1cc(C=CC(=O)C=C(O)C=Cc2ccc(OC(=O)[C@@H](N)C(C)C)c(OC)c2)ccc1OC(=O)[C@@H](N)C(C)C [Compound 71, (2S,2′S)—O,O′-(3-hydroxy-5-oxohepta-1,3,6-triene-1,7-diyl)bis(2-methoxy-4,1-phenylene) bis(2-amino-3-methylbutanoate)]
- ALP activity −matrix [1]: + (5-50%)
- ALP activity +matrix [2]: + (5-50%)

Molecule: COc1cc(C=CC(=O)C2CCCC(=Cc3ccc(O)c(OC)c3)C2=O)ccc1O (stereo not shown) [Compound 58, 2-(4-Hydroxy-3-methoxybenzylidene)-6-(3-(4-hydroxy-3-methoxyphenyl)acryloyl)cyclohexanone]
- activation at 0.5 µM [1]: 5 to 50%
- activation at 0.5 µM [2]: 5 to 50%

Molecule: COc1ccc(C(=O)N2c3ccc(F)cc3[C@@H](Nc3ccc(F)cc3)C[C@@H]2C)cc1 (relative stereo) [Compound 26, trans-1-(p-methoxybenzoyl)-2-methyl-6-fluoro-N-(p-fluorophenyl)-1,2,3,4-tetrahydroquinolin-4-amine]
- activation at 0.5 µM [3]: < 5%
- activation at 0.5 µM [4]: 50 to 100%

Molecule: NCCCCC(N)C(=O)Oc1ccc(C=CC(=O)CC(=O)C=Cc2ccc(OC(=O)C(N)CCCCN)cc2)cc1 [Compound 69, (2S,2′S)—O,O′-(3,5-Dioxohepta-1,6-diene-1,7-diyl)bis(4,1-phenylene) bis(2,6-bis-amino)hexanoate]
- ALP activity −matrix [1]: − (<5%)
- ALP activity +matrix [2]: + (5-50%)

Molecule: COc1ccc(C(=O)N2c3ccc(F)cc3[C@@H](N(C(=O)c3ccc(OC)cc3)c3ccc(F)cc3)C[C@@H]2C)cc1 (relative stereo) [Compound 30, trans-1-(p-methoxybenzoyl)-2-methyl-6-fluoro-N-(p-fluorophenyl)-N-(p-methoxybenzoyl)-1,2,3,4-tetrahydroquinolin-4-amine]
- activation at 0.5 µM [3]: < 5%
- activation at 0.5 µM [4]: 5 to 50%

Molecule: COc1cc(N(C)C)ccc1C=CC(=O)C=C(O)C=Cc1ccc(N(C)C)cc1OC [Compound 39, 1,7-Bis(4-dimethylamino-2-methoxyphenyl). 5-hydroxy-hepta-1,4,6-trien-3-one]
- ALP activity −matrix [1]: +++ (>100%)
- ALP activity +matrix [2]: − (<5%)

Molecule: COc1ccc(N[C@H]2C[C@H](C)Nc3ccc(OC)cc32)cc1 (relative stereo) [Compound 12, trans-2-methyl-6-methoxy-N-(p-methoxyphenyl)-1,2,3,4-tetrahydroquinolin-4-amine]
- activation at 0.5 µM [3]: > 100%
- activation at 0.5 µM [4]: 5 to 50%

Molecule: COc1ccc(N[C@@H]2C[C@H](C)Nc3ccc(OC)cc32)cc1 (relative stereo) [Compound 11, cis-2-methyl-6-methoxy-N-(p-methoxyphenyl)-1,2,3,4-tetrahydroquinolin-4-amine]
- activation at 0.5 µM [3]: < 5%
- activation at 0.5 µM [4]: 50 to 100%

Molecule: cis-1-acetyl-4-(phenylamino)-1,2,3,4-tetrahydroquinoline [Compound 20]
- ALP activity −matrix [3]: − (<5%)
- ALP activity +matrix [4]: ++ (50-100%)

Molecule: COc1ccc(F)cc1C=CC(=O)C=C(O)C=Cc1cc(F)ccc1OC [Compound 53, 1,7-Bis-(5-fluoro-2-methoxyphenyl)-5-Hydroxy-hepta-1,4,6-trien-3-one]
- activation at 0.5 µM [1]: < 5%
- activation at 0.5 µM [2]: < 5%

Molecule: CN(C)c1ccc(C=CC(=O)C2CCCC(=Cc3ccc(N(C)C)cc3)C2=O)cc1 (stereo not shown) [Compound 57, 2-(4-N,N-dimethylaminobenzylidene)-6-(3-(4-N,N-dimethylaminophenyl)acryloyl)cyclohexanone]
- ALP activity −matrix [1]: − (<5%)
- ALP activity +matrix [2]: ++ (50-100%)

Molecule: C[C@H]1C[C@H](Nc2ccc(F)cc2)c2cc(F)ccc2N1C(=O)c1ccccc1 (relative stereo) [Compound 24, trans-1-benzoyl-2-methyl-6-fluoro-N-(p-fluorophenyl)-1,2,3,4-tetrahydroquinolin-4-amine]
- activation at 0.5 µM [3]: 50 to 100%
- activation at 0.5 µM [4]: < 5%

Molecule: C[C@H]1C[C@H](N(C(=O)c2ccccc2)c2ccc(F)cc2)c2cc(F)ccc2N1C(=O)c1ccccc1 (relative stereo) [Compound 29, trans-1-benzoyl-2-methyl-6-fluoro-N-(p-fluorophenyl)-N-benzoyl-1,2,3,4-tetrahydroquinolin-4-amine]
- activation at 0.5 µM [3]: > 100%
- activation at 0.5 µM [4]: < 5%

Molecule: O=C(CCc1ccc(O)cc1)C1CCCC(Cc2ccc(O)cc2)C1=O (stereo not shown) [Compound 62, 2-(4-Hydroxybenzyl)-6-(3-(4-hydroxyphenyl)propanoyl)cyclohexanone]
- activation at 0.5 µM [1]: < 5%
- activation at 0.5 µM [2]: 5 to 50%

Molecule: COc1ccc(C=CC(=O)C=C(O)C=Cc2ccc(OC)c(O)c2)cc1O [Compound 48, 5-Hydroxy-1,7-bis-(3-hydroxy-4-methoxyphenyl)-hepta-1,4,6-trien-3-one]
- activation at 0.5 µM [1]: > 100%
- activation at 0.5 µM [2]: < 5%

Molecule: Cc1ccc(N[C@@H]2C[C@H](C)N(C(=O)c3ccccc3)c3ccc(C)cc32)cc1 (relative stereo) [Compound 18, cis-1-benzoyl-2,6-dimethyl-N-(p-methylphenyl)-1,2,3,4-tetrahydroquinolin-4-amine]
- activation at 0.5 µM [3]: > 100%
- activation at 0.5 µM [4]: < 5%

Molecule: Cc1ccc(N[C@H]2C[C@H](C)N(C(=O)C(C)C)c3ccc(C)cc32)cc1 (relative stereo) [Compound 15, trans-1-(2-propylcarbonyl)-2,6-dimethyl-4-(4-methylphenylamino)-1,2,3,4-tetrahydroquinoline]
- activation at 0.5 µM [3]: < 5%
- activation at 0.5 µM [4]: 50 to 100%

Molecule: Cc1ccc(N[C@H]2C[C@H](C)N(C(=O)c3ccccc3)c3ccc(C)cc32)cc1 (relative stereo) [Compound 19, trans-1-benzoyl-2,6-dimethyl-N-(p-methylphenyl)-1,2,3,4-tetrahydroquinolin-4-amine]
- activation at 0.5 µM [3]: < 5%
- activation at 0.5 µM [4]: < 5%

Molecule: CC(=O)N1c2ccc(C)cc2[C@@H](N(C(C)=O)c2ccc(C)cc2)C[C@@H]1C (relative stereo) [Compound 27, trans-1-acetyl-2,6-dimethyl-N-(p-methylphenyl)-N-acetyl-1,2,3,4-tetrahydroquinolin-4-amine]
- activation at 0.5 µM [3]: 5 to 50%
- activation at 0.5 µM [4]: 5 to 50%

Molecule: C[C@H]1C[C@@H](Nc2ccccc2)c2ccccc2N1 (relative stereo) [Compound 7, cis-2-methyl-N-phenyl-1,2,3,4-tetrahydroquinolin-4-amine]
- activation at 0.5 µM [3]: 5 to 50%
- activation at 0.5 µM [4]: 5 to 50%

Molecule: C[C@H]1C[C@@H](Nc2ccc(F)cc2)c2cc(F)ccc2N1C(=O)c1ccccc1 (relative stereo) [Compound 23, cis-1-benzoyl-2-methyl-6-fluoro-N-(p-fluorophenyl)-1,2,3,4-tetrahydroquinolin-4-amine]
- activation at 0.5 µM [3]: 50 to 100%
- activation at 0.5 µM [4]: 5 to 50%

Molecule: (2S,2′S)4-(3-(3-(4-(2-amino-3-methylbutanoyloxy)-3-methoxybenzylidene)-2-oxocyclohexyl)-3-oxoprop-1-enyl)-2-methoxyphenyl bis(2-(tert-butoxycarbonylamino)-3-methylbutanoate) [Compound 78]
- ALP activity −matrix [1]: − (<5%)
- ALP activity +matrix [2]: + (5-50%)

Molecule: COc1cc(O)ccc1C=CC(=O)C=C(O)C=Cc1ccc(O)cc1OC [Compound 49, 5-Hydroxy-1,7-bis-(4-hydroxy-2-methoxyphenyl)-hepta-1,4,6-trien-3-one]
- activation at 0.5 µM [1]: 50 to 100%
- activation at 0.5 µM [2]: < 5%

Molecule: CC(C)[C@H](NC(=O)OC(C)(C)C)C(=O)Oc1ccc(C=CC(O)=CC(=O)C=Cc2ccc(O)cc2)cc1 [Compound 83, (S)-4-(3-hydroxy-7-(4-hydroxyphenyl)-5-oxohepta-1,3,6-trienyl)phenyl 2-N-Boc-amino-3-methylbutanoate]
- ALP activity −matrix [1]: + (5-50%)
- ALP activity +matrix [2]: − (<5%)
